Values quoted from earlier work, collected in US20060148027A1, “Sprouty and SPRED protein biosensors” (Board of Regents, the University of Texas System, priority 2005, published 2006).

Details: known potential of the reference redox dye

redox potential: −289 mV
Structure (SMILES): Cc1cc2nc3cc(C)c(N)cc3[n+](-c3ccccc3)c2cc1N.[Cl-] [Safranine O]
